Data taken from patent US12006302B2, “Tau PET imaging ligands” (Janssen Pharmaceutica NV, priority 2016, dated 2024).

What was measured:
MAO = test: in vitro binding of tritiated tracers to MAO-rich human tissue (striatum); details: tracer 10 nM
Procedure: (§1) The tracer was tested at 10 nM and higher concentrations were not investigated in this study.
In comparison, the tau tracer [^3H]-THK-5351 and the Aβ tracer [^3H]-AV-45 were used as THK-5351 is known to also bind MAO.

[1] = test system: AD tissue containing only Aβ plaques; test: in vitro binding of tritiated tracers to tau-negative AD tissue; parameters: species or system human; details: tracer 10 nM
Procedure: as §1
(§2) [^3H]-AV-45 (selective for Aβ plaques) binds both tau and Aβ pathology (Aβ+/tau+, Tissue #28391) and Aβ pathology only (Aβ+/tau−, Tissue #92/050) human tissues as expected (FIG. 3L-M). As a control for the human AD tissues (Tissue #28391: FIG. 4, Tissue #92/050: FIG. 5) and striatal tissue (FIG. 6) used in this study immunohistochemistry was performed. […] Furthermore, MAO-B and MAO-A expression in the human striatal tissue (#S96/037) was confirmed using immunohistochemistry (FIG. 6).

PHF = PHF (Homo sapiens, UniProt P10636); details: literature; cited from earlier work
PHF, sequence (P10636 1-441 isoform P10636-8): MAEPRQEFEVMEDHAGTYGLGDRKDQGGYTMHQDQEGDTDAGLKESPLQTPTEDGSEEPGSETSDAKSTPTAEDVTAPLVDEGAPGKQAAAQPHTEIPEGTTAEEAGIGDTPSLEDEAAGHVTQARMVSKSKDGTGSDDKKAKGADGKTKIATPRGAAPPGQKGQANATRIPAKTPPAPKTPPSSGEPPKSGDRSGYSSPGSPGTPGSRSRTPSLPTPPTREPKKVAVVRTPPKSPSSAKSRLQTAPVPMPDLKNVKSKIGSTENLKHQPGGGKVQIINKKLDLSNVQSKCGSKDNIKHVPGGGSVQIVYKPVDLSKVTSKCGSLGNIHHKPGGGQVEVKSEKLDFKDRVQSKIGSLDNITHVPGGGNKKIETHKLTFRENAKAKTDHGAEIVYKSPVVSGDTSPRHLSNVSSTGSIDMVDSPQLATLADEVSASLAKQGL

monoamine oxidase MAO-B = target: T1, monoamine oxidase MAO-B (Homo sapiens, UniProt P27338); details: literature; cited from earlier work
T1 construct: PET imaging of the human brain with the quinoline compound; host or cells: human brain in vivo
T1 sequence (P27338 1-520): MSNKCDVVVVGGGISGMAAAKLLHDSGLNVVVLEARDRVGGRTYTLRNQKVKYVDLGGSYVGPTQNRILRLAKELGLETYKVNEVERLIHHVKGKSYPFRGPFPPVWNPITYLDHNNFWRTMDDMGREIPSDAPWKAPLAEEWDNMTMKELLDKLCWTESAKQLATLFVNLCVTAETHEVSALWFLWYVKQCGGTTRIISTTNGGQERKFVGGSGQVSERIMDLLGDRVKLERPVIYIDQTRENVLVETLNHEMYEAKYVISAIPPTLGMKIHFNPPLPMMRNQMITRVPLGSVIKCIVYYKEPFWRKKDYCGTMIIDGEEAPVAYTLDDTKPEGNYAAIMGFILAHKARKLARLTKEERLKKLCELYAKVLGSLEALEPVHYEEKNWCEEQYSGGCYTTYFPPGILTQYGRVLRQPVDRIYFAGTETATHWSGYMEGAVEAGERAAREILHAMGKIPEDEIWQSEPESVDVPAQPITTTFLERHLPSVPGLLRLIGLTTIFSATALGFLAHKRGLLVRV

[2] = test system: AD brain containing tau and Aβ pathology; test: in vitro binding of tritiated tracers to frozen AD brain slices with tau and Aβ pathology; parameters: species or system human; details: tracer 10 nM
Procedure: as §1, §2

[3] = target: peripheral cortical benzodiazepine receptors in activated microglia (Homo sapiens, UniProt P30536); details: literature; cited from earlier work
peripheral cortical benzodiazepine receptors in activated microglia, sequence (P30536 whole entry): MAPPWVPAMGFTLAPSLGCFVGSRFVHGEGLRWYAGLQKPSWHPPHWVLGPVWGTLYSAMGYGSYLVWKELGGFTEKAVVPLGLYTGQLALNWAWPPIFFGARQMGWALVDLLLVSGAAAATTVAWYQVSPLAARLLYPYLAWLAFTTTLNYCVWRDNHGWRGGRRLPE

[4] = literature; cited from earlier work
[5] = target: T2, amyloid plaque-rich, NFT-poor AD brain homogenates (Homo sapiens, UniProt P05067); details: literature; cited from earlier work
T2 construct: amyloid plaques which form by aggregation of beta-amyloid peptide; host or cells: AD brain homogenates
T2 sequence (P05067 672-713 limits assumed): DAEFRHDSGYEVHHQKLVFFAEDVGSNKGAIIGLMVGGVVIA

[6] = test system: human AD brain cortex homogenates containing abundant NFT; details: literature; cited from earlier work

## CNc1ccc(-c2ccc3cc(OC[C@H](O)CF)ccc3n2)cn1 [[^3H]-THK-5351, reference compound]
MAO
  tracer binding to MAO-rich human tissue (striatum): binds
[1]
  tracer binding to tau-negative AD tissue containing only Aβ plaques: binds

## CNc1ccc(-c2ccc3cc(OC[C@H](O)C[18F])ccc3n2)cn1 [^18F-THK5351]
PHF
  affinity to PHF: high affinity
Monoamine oxidase MAO-B
  off-target binding in PET imaging of the human brain: confounded by off-target binding

## Cc1cnc(Nc2ccc3cnccc3c2)cc1F [[^3H]-Co. No. 1]
[2]
  tracer binding to AD brain slices containing tau and Aβ pathology: binds
MAO
  tracer binding to MAO-rich human tissue (striatum): no binding
[1]
  tracer binding to tau-negative AD tissue containing only Aβ plaques: does not bind

## CCC(C)N([11CH3])C(=O)c1cc2ccccc2c(-c2ccccc2Cl)n1 (centres unmarked) [[^11C]PK11195]
[3]
  brain retention, patients versus healthy volunteers: failing to show any differences

## Nc1c(F)ccc2cnc(-n3ccc4ccncc43)cc12 [^18F-MK-6240, 6-fluoro-3-(1H-pyrrolo[2,3-c]pyridine-1-yl)isoquinoline-5-amine]
[4]
  defluorination as skull uptake: Moderate defluorination
[5]
  binding to amyloid plaque-rich, NFT-poor AD brain homogenates: binds poorly
[6]
  binding to human AD brain cortex homogenates containing abundant NFT: binds with high affinity
